Patent publication US11445724B2, “Insecticidal compounds” (SYNGENTA PARTICIPATIONS AG, priority 2013, dated 2022)

Key:
Format in all cases: in vivo
[1] = system: Plutella xylostella (Diamond back moth); test: Plutella xylostella (Diamond back moth) larval mortality, artificial diet in 24-well MTP; conditions: 144 h, application rate 200 ppm (concentration in well 18 ppm), L2 larvae, larval mortality after 6 days
[2] = system: Spodoptera littoralis (Egyptian cotton leafworm); test: Spodoptera littoralis (Egyptian cotton leafworm) mortality, sprayed cotton leaf discs; conditions: foliar, 72 h, 200 ppm spray on cotton leaf discs, L1 larvae, mortality 3 DAT
[3] = system: Thrips tabaci (Onion thrips); test: Thrips tabaci (Onion thrips) mortality, sprayed sunflower leaf discs; conditions: foliar, 168 h, 200 ppm spray on sunflower leaf discs, mixed ages, mortality after 7 days
[4] = system: Myzus persicae (Green peach aphid); test: Myzus persicae (Green peach aphid) mortality, sprayed sunflower leaf discs; conditions: foliar, 144 h, 200 ppm spray on sunflower leaf discs, mixed ages, mortality 6 DAT
[5] = system: Myzus persicae (Green peach aphid); test: Myzus persicae (Green peach aphid) mortality, test compounds mixed with Sucrose solution under Parafilm; conditions: 120 h, 12.5 ppm in Sucrose solution, infested pea seedlings on Parafilm, mortality 5 days after infestation
[6] = system: Diabrotica balteata (Corn root worm); test: Diabrotica balteata (Corn root worm) larval mortality, artificial diet in 24-well MTP; conditions: 120 h, application rate 200 ppm (concentration in well 18 ppm), L2 larvae, larval mortality after 5 days
[7] = system: Tetranychus urticae (Two-spotted spider mite); test: Tetranychus urticae (Two-spotted spider mite) mortality, sprayed bean leaf discs; conditions: foliar, 192 h, 200 ppm spray on bean leaf discs, mixed ages, egg, larval and adult mortality after 8 days

O=C(Nc1cccc(C(=O)Nc2c(Cl)cc(C(F)(C(F)(F)F)C(F)(F)F)cc2OC(F)F)c1F)c1ccc(C(F)(F)F)cc1 [Compound 64]
≥ 80%: pest or weed control at 200 ppm [1] | pest or weed control at 200 ppm [2] | pest or weed control at 200 ppm [3] | pest or weed control at 200 ppm [4] | pest or weed control at 12.5 ppm [5] | pest or weed control at 200 ppm [6] | pest or weed control at 200 ppm [7]

COc1c(NC(=O)c2ccc(F)cc2Cl)cccc1C(=O)Nc1c(Br)cc(C(F)(C(F)(F)F)C(F)(F)F)cc1OC(F)F [Compound 66]
≥ 80%: pest or weed control at 200 ppm [1] | pest or weed control at 200 ppm [2] | pest or weed control at 200 ppm [3] | pest or weed control at 200 ppm [4] | pest or weed control at 12.5 ppm [5] | pest or weed control at 200 ppm [6] | pest or weed control at 200 ppm [7]

O=C(Nc1cccc(C(=O)Nc2c(Cl)cc(C(F)(C(F)(F)F)C(F)(F)F)cc2OC(F)F)c1F)c1ccccc1 [Compound 68]
≥ 80%: pest or weed control at 200 ppm [1] | pest or weed control at 200 ppm [2] | pest or weed control at 200 ppm [3] | pest or weed control at 200 ppm [4] | pest or weed control at 12.5 ppm [5] | pest or weed control at 200 ppm [6] | pest or weed control at 200 ppm [7]

O=C(Nc1cccc(C(=O)Nc2c(Cl)cc(C(F)(C(F)(F)F)C(F)(F)F)cc2OC(F)F)c1F)c1ccc(F)cc1 [Compound 70]
≥ 80%: pest or weed control at 200 ppm [1] | pest or weed control at 200 ppm [2] | pest or weed control at 200 ppm [3] | pest or weed control at 200 ppm [4] | pest or weed control at 12.5 ppm [5] | pest or weed control at 200 ppm [6] | pest or weed control at 200 ppm [7]

O=C(Nc1cccc(C(=O)Nc2c(Cl)cc(C(F)(C(F)(F)F)C(F)(F)F)cc2OC(F)F)c1F)c1cccc(F)c1F [Compound 76]
≥ 80%: pest or weed control at 200 ppm [1] | pest or weed control at 200 ppm [2] | pest or weed control at 200 ppm [3] | pest or weed control at 200 ppm [4] | pest or weed control at 12.5 ppm [5] | pest or weed control at 200 ppm [6] | pest or weed control at 200 ppm [7]

O=C(Nc1cccc(C(=O)Nc2c(Cl)cc(C(F)(C(F)(F)F)C(F)(F)F)cc2OC(F)F)c1F)c1ccc(F)cc1F [Compound 78]
≥ 80%: pest or weed control at 200 ppm [1] | pest or weed control at 200 ppm [2] | pest or weed control at 200 ppm [3] | pest or weed control at 200 ppm [4] | pest or weed control at 12.5 ppm [5] | pest or weed control at 200 ppm [6] | pest or weed control at 200 ppm [7]

COc1c(NC(=O)c2ccc([N+](=O)[O-])cc2)cccc1C(=O)Nc1c(Cl)cc(C(F)(C(F)(F)F)C(F)(F)F)cc1OC(F)F [Compound 81]
≥ 80%: pest or weed control at 200 ppm [1] | pest or weed control at 200 ppm [2] | pest or weed control at 200 ppm [3] | pest or weed control at 200 ppm [4] | pest or weed control at 12.5 ppm [5] | pest or weed control at 200 ppm [6] | pest or weed control at 200 ppm [7]

O=C(Nc1cccc(C(=O)Nc2c(Br)cc(C(F)(C(F)(F)F)C(F)(F)F)cc2OC(F)F)c1F)c1ccccc1F [Compound 83]
≥ 80%: pest or weed control at 200 ppm [1] | pest or weed control at 200 ppm [2] | pest or weed control at 200 ppm [3] | pest or weed control at 200 ppm [4] | pest or weed control at 12.5 ppm [5] | pest or weed control at 200 ppm [6] | pest or weed control at 200 ppm [7]

COc1c(NC(=O)c2ccc(F)cc2C)cccc1C(=O)Nc1c(Cl)cc(C(F)(C(F)(F)F)C(F)(F)F)cc1OC(F)F [Compound 84]
≥ 80%: pest or weed control at 200 ppm [1] | pest or weed control at 200 ppm [2] | pest or weed control at 200 ppm [3] | pest or weed control at 200 ppm [4] | pest or weed control at 12.5 ppm [5] | pest or weed control at 200 ppm [6] | pest or weed control at 200 ppm [7]

COc1c(NC(=O)c2ccc([N+](=O)[O-])cc2Cl)cccc1C(=O)Nc1c(Cl)cc(C(F)(C(F)(F)F)C(F)(F)F)cc1OC(F)F [Compound 86]
≥ 80%: pest or weed control at 200 ppm [1] | pest or weed control at 200 ppm [2] | pest or weed control at 200 ppm [3] | pest or weed control at 200 ppm [4] | pest or weed control at 12.5 ppm [5] | pest or weed control at 200 ppm [6] | pest or weed control at 200 ppm [7]

COc1c(NC(=O)c2ccc(C(F)(F)F)cc2)cccc1C(=O)Nc1c(Cl)cc(C(F)(C(F)(F)F)C(F)(F)F)cc1OC(F)F [Compound 89]
≥ 80%: pest or weed control at 200 ppm [1] | pest or weed control at 200 ppm [2] | pest or weed control at 200 ppm [3] | pest or weed control at 200 ppm [4] | pest or weed control at 12.5 ppm [5] | pest or weed control at 200 ppm [6] | pest or weed control at 200 ppm [7]

COc1c(NC(=O)c2ccc(F)cc2)cccc1C(=O)Nc1c(Cl)cc(C(F)(C(F)(F)F)C(F)(F)F)cc1OC(F)F [Compound 93]
≥ 80%: pest or weed control at 200 ppm [1] | pest or weed control at 200 ppm [2] | pest or weed control at 200 ppm [3] | pest or weed control at 200 ppm [4] | pest or weed control at 12.5 ppm [5] | pest or weed control at 200 ppm [6] | pest or weed control at 200 ppm [7]

COc1c(C(=O)C(C(C)=O)c2c(Br)cc(C(F)(C(F)(F)F)C(F)(F)F)cc2OC(F)F)cccc1N(C)C(=O)c1ccncc1 (centres unmarked) [Compound 99]
≥ 80%: pest or weed control at 200 ppm [1] | pest or weed control at 200 ppm [2] | pest or weed control at 200 ppm [3] | pest or weed control at 200 ppm [4] | pest or weed control at 12.5 ppm [5] | pest or weed control at 200 ppm [6] | pest or weed control at 200 ppm [7]

Cc1cc(C(F)(C(F)(F)F)C(F)(F)F)cc(OC(F)F)c1NC(=O)c1cccc(NC(=O)c2ccncc2)c1F [Compound 100]
≥ 80%: pest or weed control at 200 ppm [1] | pest or weed control at 200 ppm [2] | pest or weed control at 200 ppm [3] | pest or weed control at 200 ppm [4] | pest or weed control at 12.5 ppm [5] | pest or weed control at 200 ppm [6] | pest or weed control at 200 ppm [7]

CCN(C(=O)c1ccncc1)c1cccc(C(=O)Nc2c(C)cc(C(F)(C(F)(F)F)C(F)(F)F)cc2OC(F)F)c1F [Compound 101]
≥ 80%: pest or weed control at 200 ppm [1] | pest or weed control at 200 ppm [2] | pest or weed control at 200 ppm [3] | pest or weed control at 200 ppm [4] | pest or weed control at 12.5 ppm [5] | pest or weed control at 200 ppm [6] | pest or weed control at 200 ppm [7]

COc1c(C(=O)Nc2c(Br)cc(C(F)(C(F)(F)F)C(F)(F)F)cc2OC(F)F)cccc1N(C)C(=O)c1ccncc1 [Compound 102]
≥ 80%: pest or weed control at 200 ppm [1] | pest or weed control at 200 ppm [2] | pest or weed control at 200 ppm [3] | pest or weed control at 200 ppm [4] | pest or weed control at 12.5 ppm [5] | pest or weed control at 200 ppm [6] | pest or weed control at 200 ppm [7]

CCN(C(=O)c1ccc([N+](=O)[O-])cc1)c1cccc(C(=O)Nc2c(Br)cc(C(F)(C(F)(F)F)C(F)(F)F)cc2OC(F)F)c1F [Compound 103]
≥ 80%: pest or weed control at 200 ppm [1] | pest or weed control at 200 ppm [2] | pest or weed control at 200 ppm [3] | pest or weed control at 200 ppm [4] | pest or weed control at 12.5 ppm [5] | pest or weed control at 200 ppm [6] | pest or weed control at 200 ppm [7]

CCN(C(=O)c1cccc(F)c1F)c1cccc(C(=O)Nc2c(Br)cc(C(F)(C(F)(F)F)C(F)(F)F)cc2OC(F)F)c1F [Compound 108]
≥ 80%: pest or weed control at 200 ppm [1] | pest or weed control at 200 ppm [2] | pest or weed control at 200 ppm [3] | pest or weed control at 200 ppm [4] | pest or weed control at 12.5 ppm [5] | pest or weed control at 200 ppm [6] | pest or weed control at 200 ppm [7]

CCN(C(=O)c1ccc(F)cc1F)c1cccc(C(=O)Nc2c(Br)cc(C(F)(C(F)(F)F)C(F)(F)F)cc2OC(F)F)c1F [Compound 109]
≥ 80%: pest or weed control at 200 ppm [1] | pest or weed control at 200 ppm [2] | pest or weed control at 200 ppm [3] | pest or weed control at 200 ppm [4] | pest or weed control at 12.5 ppm [5] | pest or weed control at 200 ppm [6] | pest or weed control at 200 ppm [7]

CCN(C(=O)c1ccccc1)c1cccc(C(=O)Nc2c(Cl)cc(C(F)(C(F)(F)F)C(F)(F)F)cc2OC(F)F)c1F [Compound 119]
≥ 80%: pest or weed control at 200 ppm [1] | pest or weed control at 200 ppm [2] | pest or weed control at 200 ppm [3] | pest or weed control at 200 ppm [4] | pest or weed control at 12.5 ppm [5] | pest or weed control at 200 ppm [6] | pest or weed control at 200 ppm [7]

CCN(C(=O)c1ccc(F)cc1)c1cccc(C(=O)Nc2c(Cl)cc(C(F)(C(F)(F)F)C(F)(F)F)cc2OC(F)F)c1F [Compound 120]
≥ 80%: pest or weed control at 200 ppm [1] | pest or weed control at 200 ppm [2] | pest or weed control at 200 ppm [3] | pest or weed control at 200 ppm [4] | pest or weed control at 12.5 ppm [5] | pest or weed control at 200 ppm [6] | pest or weed control at 200 ppm [7]

CCN(C(=O)c1ccc(F)cc1Cl)c1cccc(C(=O)Nc2c(Cl)cc(C(F)(C(F)(F)F)C(F)(F)F)cc2OC(F)F)c1F [Compound 122]
≥ 80%: pest or weed control at 200 ppm [1] | pest or weed control at 200 ppm [2] | pest or weed control at 200 ppm [3] | pest or weed control at 200 ppm [4] | pest or weed control at 12.5 ppm [5] | pest or weed control at 200 ppm [6] | pest or weed control at 200 ppm [7]

CCN(C(=O)c1ccc(F)cc1)c1cccc(C(=O)Nc2c(Br)cc(C(F)(C(F)(F)F)C(F)(F)F)cc2OC(F)F)c1F [Compound 128]
≥ 80%: pest or weed control at 200 ppm [1] | pest or weed control at 200 ppm [2] | pest or weed control at 200 ppm [3] | pest or weed control at 200 ppm [4] | pest or weed control at 12.5 ppm [5] | pest or weed control at 200 ppm [6] | pest or weed control at 200 ppm [7]
